What all share (format): cell-based
The subject of one data set is SUM149PT tumor organoids. Put plainly: Tumor organoid cytotoxicity (CellTiter Glo 3D), SUM149PT. The settings on record: for IC50: Homo sapiens; for increase in potency of the chemotherapy: SUM149PT BRCA1 mutant tumor organoids, + 1.9 μM Compound 6; for improvement of IC50 potency: combined with Compound 6; for mean synergy score (Bliss): SUM149PT cells. Here is the method:
Tumor organoid culture—Cell lines were cultured as tumor organoids by seeding 2,000 to 5,000 cells/well into uncoated 96 well U-bottom Ultra Low Attachment Microplates (Corning) using their corresponding medium.
Luminescence was recorded using the EnVision plate reader (PerkinElmer) and values normalized to the controls using GraphPad Prism.
Background: ATP-based viability assays read luminescence as a measure of living cells.

A further data set concerns PAR in SUM149PT cells. The data set can be described thus: PAR immunofluorescence (nuclear / cytoplasmic PAR). The settings on record: for nuclear PAR (PARylation) / cytoplasmic PAR: SUM149PT cells, single agent; for nuclear PAR (PARylation): 4 h. The text has this: Inhibition of CHD1L promotes PAR translocation to the cytoplasm. The main role of PARP1 during the DDR is to detect and signal the recruitment of repair machinery to the sites of DNA damage. For that, PARP1/2 catalyze PARylation, which is a pivotal […] protein modification, consisting of the addition of ADP-ribose units to the carboxyl group of acidic residues such as glutamate or aspartate on target proteins by using NAD^+ as substrate. CHD1L is one of the proteins that requires binding to these PAR chains for its activation and subsequent chromatin remodeling. Using immunofluorescence of PAR, the effect of PARPi and CHD1Li on PARylation in SUM149PT cells was investigated. […] In addition, the effect of doxorubicin on nuclear PARylation was reverted by CHD1L inhibition, causing an increase of PAR in the cytoplasm (FIG. 25A-C).

Data set [1] deals with MDA-MB-231 tumor organoids. Put plainly: Tumor organoid cytotoxicity, MDA-MB-231. The settings on record: for IC50: Homo sapiens. Here is the method:
Tumor organoid culture—Cell lines were cultured as tumor organoids by seeding 2,000 to 5,000 cells/well into uncoated 96 well U-bottom Ultra Low Attachment Microplates (Corning) using their corresponding medium. Cell aggregation was then promoted by centrifugation of the plates for 15 min at 1,000 rpm followed by the addition of Matrigel (Corning) to a 2-5% final concentration. Tumor organoids were maintained under standard cell culture conditions for 72 h prior to drug treatment.
Organoids were then transferred to a white solid bottom 96 well plate and incubated with an equal volume of CellTiter Glo 3D reagent (Promega) for 45 min on a shaker at 400 rpm. Luminescence was recorded using the EnVision plate reader (PerkinElmer) and values normalized to the controls using GraphPad Prism.

In another data set the test system is SUM149PT cells. Put plainly: Cell cycle analysis by flow cytometry. Here is the method:
Cells were then harvested by trypsinization, washed with PBS and fixed with 70% ice-cold ethanol for at least 2 h. The fixed cells were centrifuged at 300 g for 10 min, resuspended in PBS, centrifuged again, and stained in a 0.5 μg/mL DAPI solution in 0.1% Triton X-100-PBS for 30 min at RT. Samples were measured on a NovoCyte Penteon Cytometer (Agilent) and cell cycle distribution of single cells was analyzed using the automatic settings of FlowJo V10 (BD Biosciences).
Upon generation of DNA lesions, DNA damage checkpoints are also activated, which can lead to an arrest of the cell cycle, restraining chromosome segregation until the damaged DNA has been repaired. To study the effect of TNBC therapies and inhibition of CHD1L on the cell cycle, cells were stained with DAPI, and the cell subpopulations in G1, S and G2/M phases were analyzed by flow cytometry. […] Remarkably, the combination of these drugs with CHD1Li enhanced their effects, potentiating G2/M arrest caused by olaparib and G1 arrest caused by 5-FU (FIG. 23).
On the technique in general: A flow cytometer gives signals particle by particle.

The target of a further data set is T1, CHD1L (Homo sapiens, UniProt Q86WJ1).
T1 sequence (Q86WJ1 1-897): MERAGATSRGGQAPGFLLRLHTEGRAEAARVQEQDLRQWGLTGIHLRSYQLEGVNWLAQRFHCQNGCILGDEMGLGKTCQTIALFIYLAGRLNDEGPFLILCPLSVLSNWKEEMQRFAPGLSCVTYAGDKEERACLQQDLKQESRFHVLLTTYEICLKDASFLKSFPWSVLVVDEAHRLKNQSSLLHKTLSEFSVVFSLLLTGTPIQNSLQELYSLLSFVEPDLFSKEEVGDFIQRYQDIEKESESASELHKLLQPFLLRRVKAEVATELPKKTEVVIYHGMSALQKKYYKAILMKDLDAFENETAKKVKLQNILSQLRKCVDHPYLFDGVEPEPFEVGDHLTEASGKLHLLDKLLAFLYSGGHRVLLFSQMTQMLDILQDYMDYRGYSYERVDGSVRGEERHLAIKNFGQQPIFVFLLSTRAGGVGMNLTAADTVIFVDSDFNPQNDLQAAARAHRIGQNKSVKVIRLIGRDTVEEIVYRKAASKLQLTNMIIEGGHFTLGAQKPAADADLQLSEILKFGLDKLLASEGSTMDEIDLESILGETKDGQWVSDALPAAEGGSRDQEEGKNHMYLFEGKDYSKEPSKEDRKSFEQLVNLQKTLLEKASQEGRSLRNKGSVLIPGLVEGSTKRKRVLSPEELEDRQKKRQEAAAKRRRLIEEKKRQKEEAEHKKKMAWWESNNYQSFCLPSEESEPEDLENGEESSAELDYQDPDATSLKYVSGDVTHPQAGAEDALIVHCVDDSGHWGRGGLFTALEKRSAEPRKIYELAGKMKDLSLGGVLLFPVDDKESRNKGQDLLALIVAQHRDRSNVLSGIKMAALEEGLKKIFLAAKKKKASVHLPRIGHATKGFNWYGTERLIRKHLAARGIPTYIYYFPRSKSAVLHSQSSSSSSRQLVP
Put plainly: CHD1L trapping (in situ subcellular fractionation, immunofluorescence). The settings on record: for CHD1L trapping onto chromatin/nucleosomes: single agent, SUM149PT + 0.01% MMS 4 h, BC and CRC cells. The text has this: Other studies on the role of CHD1L used cell lines with knockdown or knockouts of the gene encoding for CHD1L and have never been able to study the result of its enzymatic inhibition.

[2] abbreviates: MDA-MB-231, MDA-MB-231 (BRCA wildtype HR-proficient), read-out: IC50, tumor organoid viability, single agent.

Read-outs that look alike come from different tables or passages of the source.

`Cc1cc(Nc2ccc(NC(=O)Cc3cccs3)cc2)nc(N2CCCC2)n1` [Compound 6, N-(4-((6-methyl-2-(pyrrolidin-1-yl)pyrimidin-4-yl)amino)phenyl)-2-(thiophen-2-yl)acetamide]: the concentration for half-maximal inhibition (IC50) – broadly, the concentration needed to halve the response being measured – is 1.7 µM in the data set on SUM149PT tumor organoids (SUM149PT, SUM149PT (BRCA1 mutant HR-deficient), read-out: IC50, tumor organoid viability, single agent) and 3300 nM in data set [1] (setting [2]). In the data set with SUM149PT tumor organoids (SUM149PT tumor organoids, Compound 6 combined with 5-FU), the “Bliss synergy score, cytotoxicity” value turned out to be 59. Moreover, the “nuclear PAR (PARylation)” value in the data set on PAR in SUM149PT cells is “caused the same effects as PARPi”. Also, in the data set on SUM149PT cells (24 hours, 0.2 μM), the cell cycle effect result is “arrest in S and G2/M phases”. Also, the “CHD1L trapping in combination” value on CHD1L (Compound 6 combined with olaparib) is recorded as “complete decrease in the CHD1L trapping”. In addition, the “CHD1L trapping onto chromatin/nucleosomes” value on CHD1L is “dose-dependent increase in CHD1L trapping”.
As to `COc1cccc2c1C(=O)c1c(O)c3c(c(O)c1C2=O)C[C@@](O)(C(=O)CO)C[C@@H]3O[C@H]1C[C@H](N)[C@H](O)[C@H](C)O1` [doxorubicin], the IC50 with SUM149PT tumor organoids (SUM149PT, Compound 13 0 μM, read-out: IC50 doxorubicin (μM) in SUM149PT) worked out at 0.505 µM; in the data set on SUM149PT tumor organoids (SUM149PT, Compound 13 2 μM, read-out: IC50 doxorubicin (μM) in SUM149PT) it was 0.0944 µM; in the data set with SUM149PT tumor organoids (SUM149PT, Compound 13 2.25 μM, read-out: IC50 doxorubicin (μM) in SUM149PT), 0.016 µM; in the data set on SUM149PT tumor organoids (SUM149PT, Compound 13 2.5 μM, read-out: IC50 doxorubicin (μM) in SUM149PT), 0.279 µM; in the data set on SUM149PT tumor organoids (SUM149PT tumor organoids, 72 h, + non-lethal doses of Compound 6, read-out: IC50 of the drug in combination), 0.28 ± 0.01 µM; in data set [1] (MDA-MB-231, Compound 13 0 μM, read-out: IC50 doxorubicin (nM) in MDA-MB-231) it was 346 nM. Also, the IC50 was 92.2 nM in data set [1] (MDA-MB-231, Compound 13 2 μM, read-out: IC50 doxorubicin (nM) in MDA-MB-231); 81.5 nM in data set [1] (MDA-MB-231, Compound 13 2.25 μM, read-out: IC50 doxorubicin (nM) in MDA-MB-231); 20.2 nM in data set [1] (MDA-MB-231, Compound 13 2.5 μM, read-out: IC50 doxorubicin (nM) in MDA-MB-231). The “increase in potency of the chemotherapy” value with SUM149PT tumor organoids was found to be 20 fold. Besides, the “improvement of IC50 potency” value in the data set with SUM149PT tumor organoids (SUM149PT tumor organoids) was 2 fold. Moreover, the “cytoplasmic PAR” value with PAR in SUM149PT cells is “no effect on cytoplasmic PAR”; with PAR in SUM149PT cells (listed as Doxorubicin), “did not elevate cytoplasmic PAR”. In addition, the “nuclear PAR (PARylation)” value in the data set with PAR in SUM149PT cells is given as “increased PARylation in the nucleus”; with PAR in SUM149PT cells (listed as Doxorubicin) it was “increased nuclear PAR”. The “CHD1L trapping onto chromatin/nucleosomes” value at CHD1L is “do not trap CHD1L”; on CHD1L (listed as Doxorubicin), “does not cause a stable interaction of CHD1L and chromatin”.
Regarding `O=c1[nH]cc(F)c(=O)[nH]1` [Compound 5-FU, 5-fluorouracil], the “IC50 5-FU (μM) in SUM149PT” value in the data set with SUM149PT tumor organoids (Compound 13 0 μM) is “Resistant”. Moreover, the IC50 in the data set with SUM149PT tumor organoids (SUM149PT, Compound 13 2 μM, read-out: IC50 5-FU (μM) in SUM149PT) was 23.8 µM; in the data set on SUM149PT tumor organoids (SUM149PT, Compound 13 2.25 μM, read-out: IC50 5-FU (μM) in SUM149PT) it was 23 µM; with SUM149PT tumor organoids (SUM149PT, Compound 13 2.5 μM, read-out: IC50 5-FU (μM) in SUM149PT) it was 14.4 µM; in data set [1] (MDA-MB-231, Compound 13 2 μM, read-out: IC50 5-FU (μM) in MDA-MB-231), 23500 nM; in data set [1] (MDA-MB-231, Compound 13 2.25 μM, read-out: IC50 5-FU (μM) in MDA-MB-231), 9100 nM; in data set [1] (MDA-MB-231, Compound 13 2.5 μM, read-out: IC50 5-FU (μM) in MDA-MB-231) it was 4600 nM. Further, the “increase in potency of the chemotherapy” value in the data set with SUM149PT tumor organoids is listed as 10 fold. Moreover, the “improvement of IC50 potency” value in the data set with SUM149PT tumor organoids (SUM149PT tumor organoids) is recorded as 10 fold. In addition, the “IC50 5-FU (μM) in MDA-MB-231” value in data set [1] (Compound 13 0 μM) is on record as “Resistant”. Moreover, the “increase in number of cells in G1 phase compared to untreated cells” value in the data set with SUM149PT cells (24 h) is reported as 16%.
Take `Cc1cc(Nc2ccc(NC(=O)Cc3cc(Br)cs3)cc2)nc(N2CCCC2)n1` [Compound 6.11, 2-(4-bromothiophen-2-yl)-N-(4-((6-methyl-2-(pyrrolidin-1-yl)pyrimidin-4-yl)amino)phenyl)acetamide]: the half-inhibitory concentration (IC50) is roughly 1.7 µM in the data set on SUM149PT tumor organoids (SUM149PT, read-out: IC50, tumor organoid viability, single agent, SUM149PT (BRCA1 mutant HR-deficient)) and roughly 3300 nM in data set [1] (setting [2]). For the same compound, the “mean synergy score (Bliss)” value is reported as “about 60” in the data set with SUM149PT tumor organoids (combined with 5-FU), “about 58” in the data set with SUM149PT tumor organoids (combined with Olaparib) and “about 56” with SUM149PT tumor organoids (combined with docetaxel). In the data set with PAR in SUM149PT cells (Compound 6.11 combined with doxorubicin), the PAR localization entry is reported as “shifted PAR to the cytoplasm”. The “cytoplasmic PAR” value with PAR in SUM149PT cells was “increased cytoplasmic PAR”.
